According to ChEMBL document CHEMBL1201862, “PubChem BioAssay data set” (2004):
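Each compound was tested at five concentrations against cells in 96-well plates for 48 hours. GI50 = concentration required for 50% inhibition of growth.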 Activity calls are given as the source filed them. Cut-off read from the data, not from the text of the source: active = GI50 up to about 1.1 µM and inactive = higher.

Assays:
Test in all cases: NCI tumour cell line growth inhibition, 48 h
[1] = tested on: ACHN
[2] = tested on: MOLT-4
[3] = tested on: HT-29
[4] = tested on: UACC-257
[5] = tested on: MDA-MB-231
[6] = tested on: LOX IMVI
[7] = tested on: K562
[8] = tested on: UO-31
[9] = tested on: SR
[10] = tested on: SF-268
[11] = tested on: U-251
[12] = tested on: EKVX
[13] = tested on: UACC-62
[14] = tested on: SF-539
[15] = tested on: SNB-19
[16] = tested on: SNB-75
[17] = tested on: SK-MEL-5
[18] = tested on: KM12
[19] = tested on: CAKI-1
[20] = tested on: HL-60

| SMILES | GI50 [1] | GI50 [2] | GI50 [3] | GI50 [4] | GI50 [5] | GI50 [6] | GI50 [7] | GI50 [8] | GI50 [9] | GI50 [10] | GI50 [11] | GI50 [12] | GI50 [13] | GI50 [14] | GI50 [15] | GI50 [16] | GI50 [17] | GI50 [18] | GI50 [19] | GI50 [20] |
| --- | --- | --- | --- | --- | --- | --- | --- | --- | --- | --- | --- | --- | --- | --- | --- | --- | --- | --- | --- | --- |
| Cc1ccc2c(c1)C1(C)OC(C=CC1=O)O2 (centres undefined) | 0.522 µM (active) | 0.225 µM (active) | 0.267 µM (active) | 1.01 µM (active) | 0.564 µM (active) | 0.573 µM (active) | 0.147 µM (active) | 1.14 µM (inactive) | 0.106 µM (active) | 1.41 µM (inactive) | 0.29 µM (active) | 2.45 µM (inactive) | 0.839 µM (active) | 0.488 µM (active) | 2.75 µM (inactive) | 1.68 µM (inactive) | 1.32 µM (inactive) | 0.736 µM (active) | 0.31 µM (active) | 0.104 µM (active) |
| C=C(CC[C@@H](C)[C@H]1CC[C@H]2[C@@H]3C[C@@H](O)[C@H]4C[C@@H](O)CC[C@]4(CO)[C@H]3CC[C@]12C)C(C)C | 5.81 µM (inactive) | 3.3 µM (inactive) | 1.98 µM (inactive) | 7.46 µM (inactive) | 4.17 µM (inactive) | 3.11 µM (inactive) | 1.49 µM (inactive) | 3.42 µM (inactive) | 2.71 µM (inactive) | 6.35 µM (inactive) | 6.44 µM (inactive) | 2.1 µM (inactive) | 8.15 µM (inactive) | 9.75 µM (inactive) | 7.98 µM (inactive) | 8.32 µM (inactive) | 8.79 µM (inactive) | 2.09 µM (inactive) | 5.64 µM (inactive) | 6.34 µM (inactive) |
| Cc1ccc(NC(=O)c2cc(S(=O)(=O)Nc3n[nH]c(=O)n3-c3ccccc3)c(S)cc2Cl)cc1 | – | > 100 µM (inactive) | > 100 µM (inactive) | > 100 µM (inactive) | > 100 µM (inactive) | > 100 µM (inactive) | > 100 µM (inactive) | > 100 µM (inactive) | > 100 µM (inactive) | > 100 µM (inactive) | > 100 µM (inactive) | > 100 µM (inactive) | > 100 µM (inactive) | > 100 µM (inactive) | > 100 µM (inactive) | > 100 µM (inactive) | > 100 µM (inactive) | > 100 µM (inactive) | > 100 µM (inactive) | > 100 µM (inactive) |
| N#CCC1(c2ccc(Cl)cc2)NC(=O)c2ccccc21 (centres undefined) | > 100 µM (inactive) | > 100 µM (inactive) | > 100 µM (inactive) | > 100 µM (inactive) | > 100 µM (inactive) | > 100 µM (inactive) | > 100 µM (inactive) | > 100 µM (inactive) | > 100 µM (inactive) | > 100 µM (inactive) | > 100 µM (inactive) | > 100 µM (inactive) | > 100 µM (inactive) | > 100 µM (inactive) | > 100 µM (inactive) | 60.8 µM (inactive) | > 100 µM (inactive) | > 100 µM (inactive) | > 100 µM (inactive) | > 100 µM (inactive) |
| Nc1nc(Cl)cc(NCC2(CO)CC(CCCc3ccccc3)C2)n1 (centres undefined) | > 41.8 µM (inactive) | > 26.9 µM (inactive) | 25.4 µM (inactive) | 0.242 µM (active) | > 100 µM (inactive) | 0.282 µM (active) | 2.11 µM (inactive) | 13.8 µM (inactive) | 1 µM (active) | > 100 µM (inactive) | > 85.3 µM (inactive) | > 25.3 µM (inactive) | > 100 µM (inactive) | > 100 µM (inactive) | > 71.1 µM (inactive) | > 46 µM (inactive) | 0.31 µM (active) | > 100 µM (inactive) | > 100 µM (inactive) | > 35.1 µM (inactive) |
| O=C(OCCN1CCCCC1)C(c1ccccc1)C1(O)CCSCC1 (centres undefined) | > 100 µM (inactive) | > 100 µM (inactive) | > 100 µM (inactive) | > 100 µM (inactive) | > 100 µM (inactive) | > 100 µM (inactive) | > 100 µM (inactive) | > 100 µM (inactive) | > 100 µM (inactive) | > 100 µM (inactive) | > 100 µM (inactive) | > 100 µM (inactive) | > 100 µM (inactive) | > 100 µM (inactive) | > 100 µM (inactive) | 83.4 µM (inactive) | > 100 µM (inactive) | > 100 µM (inactive) | > 100 µM (inactive) | > 100 µM (inactive) |
| COC(=O)[C@]1(c2cc3ccccc3[nH]2)CC2CNC1C1OC(C)(C)OC21 (some centres undefined) | > 100 µM (inactive) | 66.4 µM (inactive) | > 100 µM (inactive) | > 100 µM (inactive) | 64.7 µM (inactive) | > 100 µM (inactive) | 73.6 µM (inactive) | > 100 µM (inactive) | 47.9 µM (inactive) | > 100 µM (inactive) | > 100 µM (inactive) | > 100 µM (inactive) | > 100 µM (inactive) | > 100 µM (inactive) | > 100 µM (inactive) | > 100 µM (inactive) | > 100 µM (inactive) | > 100 µM (inactive) | > 100 µM (inactive) | > 100 µM (inactive) |
